In US20160158377A1, “BCL-XL Inhibitory Compounds and Antibody Drug Conjugates Including the Same” (AbbVie Inc., priority 2014, published 2016) one finds Ki and EC50 data, which are given here for 13 compounds.

What is called Ki is the dissociation constant of the complex between target and ligand, obtained from inhibition or displacement. The EC50 is the concentration giving half of the maximal effect.

Experiment [1] addresses Bcl-xL (Homo sapiens, UniProt Q07817). The experiment is described as follows: TR-FRET Bcl-xL binding assay (competition with probe F-Bak). Here is the method:
For the assay, test compounds were serially diluted in DMSO starting at 50 μM (2× starting concentration; 10% DMSO) and 10 μL transferred into a 384-well plate. 10 μL of a protein/probe/antibody mix was then added to each well at final concentrations listed below:
The samples were then mixed on a shaker for 1 minute and incubated for an additional 2 hours at room temperature. For each assay plate, a probe/antibody and protein/antibody/probe mixture were included as a negative and a positive control, respectively. Fluorescence was measured on the Envision (Perkin Elmer) using a 340/35 nm excitation filter and 520/525 (F-Bak) and 495/510 nm (Tb-labeled anti-his antibody) emission filters. Dissociation constants (Ki) were determined using Wang's equation (Wang, 1995, FEBS Lett. 360:111-114). The TR-FRET assay can be performed in the presence of varying concentrations of human serum (HS) or fetal bovine serum (FBS). Compounds were tested both without HS and in the presence of 1% HS.
For orientation: Time-resolved FRET reads energy transfer from a long-lived donor to a nearby acceptor.

The subject of experiment [2] is Molt-4 human acute lymphoblastic leukemia cells. The experiment is described as follows: Molt-4 cell viability assay. Type of experiment: cell-based. Particulars: 10% human serum, 48 hours, CellTiter-Glo, read-out: Molt-4 Viability EC50 (nM, 10% HS). The method, then: In one exemplary set of conditions, Molt-4 (ATCC, Manassas, Va.) human acute lymphoblastic leukemia cells were plated 12,500 cells per well in 384-well tissue culture plates (Corning, Corning, N.Y.) in a total volume of 25 μL tissue culture medium supplemented with 10% human serum (Sigma-Aldrich, St. Louis, Mo.) and treated with a 3-fold serial dilution of the compounds of interest from 10 μM to 0.0005 μM. Each concentration was tested in duplicate at least 3 separate times. The number of viable cells following 48 hours of compound treatment was determined using the CellTiter-Glo® Luminescent Cell Viability Assay according to the manufacturer's recommendations (Promega Corp., Madison, Wis.). Compounds were tested in the presence of 10% HS.
(In general: Cellular ATP, detected with luciferase, serves as a proxy for viable cell number.)

Setting [3] is: in the presence of 1% human serum (HS), read-out: Bcl-xL Binding Ki (nM, 1% HS).
[4] abbreviates: without human serum, read-out: Bcl-xL Binding Ki.

Read-outs that look alike come from different tables or passages of the source.

Chain of Bcl-xL (Q07817 whole entry): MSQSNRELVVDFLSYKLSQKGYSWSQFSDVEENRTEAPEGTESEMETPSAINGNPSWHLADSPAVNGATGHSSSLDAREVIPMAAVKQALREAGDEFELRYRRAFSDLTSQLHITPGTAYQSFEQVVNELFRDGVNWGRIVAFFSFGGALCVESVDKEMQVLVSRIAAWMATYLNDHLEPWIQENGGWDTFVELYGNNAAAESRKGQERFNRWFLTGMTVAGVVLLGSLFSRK

For `CNCCOC12CC3(C)CC(C)(CC(Cn4ncc(-c5ccc(-c6ccc7c(c6)N(C(=O)Nc6nc8ccccc8s6)CCO7)nc5C(=O)O)c4C)(C3)C1)C2` [Compound W3.02], the Ki was 0.047 nM in experiment [1] (setting [3]) and less than 0.001 nM in experiment [1] (setting [4]). In addition, the EC50 in experiment [2] stood at 0.5 nM.

For the compound `CNCCOC12CC3(C)CC(C)(CC(Cn4ncc(-c5ccc(-c6cnc7[nH]cc(C(=O)Nc8nc9ccccc9s8)c7c6)nc5C(=O)O)c4C)(C3)C1)C2` [Compound W3.35, 6-[3-(1,3-benzothiazol-2-ylcarbamoyl)-1H-pyrrolo[2,3-b]pyridin-5-yl]-3-[1-({3,5-dimethyl-7-[2-(methylamino)ethoxy]tricyclo[3.3.1.1^3,7]dec-1-yl}methyl)-5-methyl-1H-pyrazol-4-yl]pyridine-2-carboxylic acid], the Ki in experiment [1] (setting [3]) came to 0.16 nM; in experiment [1] (setting [4]), 0.022 nM. Besides, the EC50 in experiment [2] stood at 658 nM.

On to `COCCNCCOC12CC3(C)CC(C)(CC(Cn4ncc(-c5ccc(-c6ccc7c(c6)N(C(=O)Nc6nc8ccccc8s6)CCC7)nc5C(=O)O)c4C)(C3)C1)C2` [Compound W3.14, 6-[1-(1,3-benzothiazol-2-ylcarbamoyl)-1,2,3,4-tetrahydroquinolin-7-yl]-3-{1-[(3-{2-[(2-methoxyethyl)amino]ethoxy}-5,7-dimethyltricyclo[3.3.1.1^3,7]dec-1-yl)methyl]-5-methyl-1H-pyrazol-4-yl}pyridine-2-carboxylic acid], for which the Ki in experiment [1] (setting [3]) was 0.014 nM; in experiment [1] (setting [4]) it was less than 0.001 nM. The 50% effective concentration (EC50) in experiment [2] turned out to be 1.8 nM.

In the case of `Cc1c(-c2ccc(N3CCc4cccc(C(=O)Nc5nc6ccccc6s5)c4C3)nc2C(=O)O)cnn1CC12CC3(C)CC(C)(C1)CC(OCCNCCC(=O)N(C)C)(C3)C2` [Compound W3.38, 6-[8-(1,3-benzothiazol-2-ylcarbamoyl)-3,4-dihydroisoquinolin-2(1H)-yl]-3-(1-{[3-(2-{[3-(dimethylamino)-3-oxopropyl]amino}ethoxy)-5,7-dimethyltricyclo[3.3.1.1^3,7]dec-1-yl]methyl}-5-methyl-1H-pyrazol-4-yl)pyridine-2-carboxylic acid], in experiment [2], the EC50 is 10.7 nM.

With `Cc1c(-c2ccc(N3CCc4cccc(C(=O)Nc5nc6ccccc6s5)c4C3)nc2C(=O)O)cnn1CC12CC3(C)CC(C)(C1)CC(OCCNCCS(=O)(=O)N(C)C)(C3)C2` [Compound W3.36, 6-(8-(benzo[d]thiazol-2-ylcarbamoyl)-3,4-dihydroisoquinolin-2(1H)-yl)-3-(1-((3-(2-((2-(N,N-dimethylsulfamoyl)ethyl)amino)ethoxy)-5,7-dimethyladamantan-1-yl)methyl)-5-methyl-1H-pyrazol-4-yl)picolinic acid], the EC50 in experiment [2] stood at 6.9 nM.

Regarding `Cc1c(-c2ccc(N3CCc4cccc(C(=O)Nc5nc6ccccc6s5)c4C3)nc2C(=O)O)cnn1CC12CC3(C)CC(C)(CC(CCCN)(C3)C1)C2` [Compound W3.42, 3-(1-{[3-(3-aminopropyl)-5,7-dimethyltricyclo[3.3.1.1^3,7]dec-1-yl]methyl}-5-methyl-1H-pyrazol-4-yl)-6-[8-(1,3-benzothiazol-2-ylcarbamoyl)-3,4-dihydroisoquinolin-2(1H)-yl]pyridine-2-carboxylic acid], the Ki in experiment [1] (setting [3]) turned out to be 4.36 nM; in experiment [1] (setting [4]), 0.15 nM.

Take `COCCOC12CC3(C)CC(C)(CC(Cn4ncc(-c5ccc(N6CCc7cc(N8CCC(N)C8)cc(C(=O)Nc8nc9ccccc9s8)c7C6)nc5C(=O)O)c4C)(C3)C1)C2` (stereo not drawn) [Compound W3.17, 6-[6-(3-aminopyrrolidin-1-yl)-8-(1,3-benzothiazol-2-ylcarbamoyl)-3,4-dihydroisoquinolin-2(1H)-yl]-3-(1-{[3-(2-methoxyethoxy)-5,7-dimethyltricyclo[3.3.1.1^3,7]dec-1-yl]methyl}-5-methyl-1H-pyrazol-4-yl)pyridine-2-carboxylic acid]: the Ki in experiment [1] (setting [3]) stood at 2.3 nM; in experiment [1] (setting [4]), 0.49 nM.

As for `CNCCOC12CC3(C)CC(C)(CC(Cn4ncc(-c5ccc(-c6cnc7cccc(C(=O)Nc8nc9ccccc9s8)c7c6)nc5C(=O)O)c4C)(C3)C1)C2` [Compound W3.10, 6-[5-(1,3-benzothiazol-2-ylcarbamoyl)quinolin-3-yl]-3-[1-({3,5-dimethyl-7-[2-(methylamino)ethoxy]tricyclo[3.3.1.1^3,7]dec-1-yl}methyl)-5-methyl-1H-pyrazol-4-yl]pyridine-2-carboxylic acid], the results for the Ki in experiment [1] (setting [3]) and in experiment [1] (setting [4]) were 0.0259 nM and less than 0.001 nM, respectively.

Regarding `CNCCN(C)c1cc2c(c(C(=O)Nc3nc4ccccc4s3)c1)CN(c1ccc(-c3cnn(CC45CC6(C)CC(C)(C4)CC(OCCOC)(C6)C5)c3C)c(C(=O)O)n1)CC2` [Compound W3.21, 6-[8-(1,3-benzothiazol-2-ylcarbamoyl)-6-{methyl[2-(methylamino)ethyl]amino}-3,4-dihydroisoquinolin-2(1H)-yl]-3-(1-{[3-(2-methoxyethoxy)-5,7-dimethyltricyclo[3.3.1.1^3,7]dec-1-yl]methyl}-5-methyl-1H-pyrazol-4-yl)pyridine-2-carboxylic acid], the Ki in experiment [1] (setting [3]) came to 0.14 nM; in experiment [1] (setting [4]), 0.014 nM.

Take `Cc1c(-c2ccc(N3CCc4cccc(C(=O)Nc5nc6ccccc6s5)c4C3)nc2C(=O)O)cnn1CC12CC3(C)CC(C)(C1)CC(NC(=O)CN)(C3)C2` [Compound W3.40, 3-(1-{[3-(2-aminoacetamido)-5,7-dimethyltricyclo[3.3.1.1^3,7]decan-1-yl]methyl}-5-methyl-1H-pyrazol-4-yl)-6-{8-[(1,3-benzothiazol-2-yl)carbamoyl]-3,4-dihydroisoquinolin-2(1H)-yl}pyridine-2-carboxylic acid]: the Ki in experiment [1] (setting [3]) worked out at 1.1 nM; in experiment [1] (setting [4]), 0.024 nM.

Consider `CNCCOC12CC3(C)CC(C)(CC(Cn4ncc(-c5ccc(N6CCc7cc(OC)cc(C(=O)Nc8nc9ccccc9s8)c7C6)nc5C(=O)O)c4C)(C3)C1)C2` [Compound W3.22, 6-[8-(1,3-benzothiazol-2-ylcarbamoyl)-6-methoxy-3,4-dihydroisoquinolin-2(1H)-yl]-3-[1-({3,5-dimethyl-7-[2-(methylamino)ethoxy]tricyclo[3.3.1.1^3,7]dec-1-yl}methyl)-5-methyl-1H-pyrazol-4-yl]pyridine-2-carboxylic acid], for which the Ki is 0.108 nM in experiment [1] (setting [3]) and less than 0.01 nM in experiment [1] (setting [4]).

As for `Cc1c(-c2ccc(-c3ccc4nccc(C(=O)Nc5nc6ccccc6s5)c4c3)nc2C(=O)O)cnn1CC12CC3(C)CC(C)(C1)CC(OCCN)(C3)C2` [Compound W3.23, 3-(1-{[3-(2-aminoethoxy)-5,7-dimethyltricyclo[3.3.1.1^3,7]dec-1-yl]methyl}-5-methyl-1H-pyrazol-4-yl)-6-[4-(1,3-benzothiazol-2-ylcarbamoyl)quinolin-6-yl]pyridine-2-carboxylic acid], the Ki in experiment [1] (setting [3]) was found to be 1.1 nM; in experiment [1] (setting [4]), 0.021 nM.

`Cc1c(-c2ccc(-c3cnc4cccc(C(=O)Nc5nc6ccccc6s5)c4c3)nc2C(=O)O)cnn1CC12CC3(C)CC(C)(C1)CC(OCCN)(C3)C2` [Compound W3.43, 3-(1-{[3-(2-aminoethoxy)-5,7-dimethyltricyclo[3.3.1.1^3,7]decan-1-yl]methyl}-5-methyl-1H-pyrazol-4-yl)-6-{5-[(1,3-benzothiazol-2-yl)carbamoyl]quinolin-3-yl}pyridine-2-carboxylic acid]: the Ki was 0.07 nM in experiment [1] (setting [3]) and less than 0.01 nM in experiment [1] (setting [4]).
